Patent US6362216B1, “Compounds which inhibit tryptase activity” (Array Biopharma Inc., priority 1998, dated 2002)

Assays:
Format in all cases: biochemical
[1] = molecular target: T1, Human Neutrophil Cathepsin G (Homo sapiens, UniProt P08311); test: Human neutrophil cathepsin G inhibition, N-Suc-Ala-Ala-Pro-Phe-pNA substrate; conditions: 625 mM Tris-HCl, pH 7.5, 2.5 mM MgCl2, 0.125% Brij 35
T1 construct: from tissue; host or cells: human neutrophils
T1 sequence (P08311 21-244): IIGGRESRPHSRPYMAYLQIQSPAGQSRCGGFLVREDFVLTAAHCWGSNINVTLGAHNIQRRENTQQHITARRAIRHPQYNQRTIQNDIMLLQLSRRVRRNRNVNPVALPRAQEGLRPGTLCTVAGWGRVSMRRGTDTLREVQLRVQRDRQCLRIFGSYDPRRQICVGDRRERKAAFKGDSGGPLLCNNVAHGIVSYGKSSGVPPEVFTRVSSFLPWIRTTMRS
Method: (§1) Protease inhibition was assayed according to published procedures with minor modifications using various proteases and specific chromogenic peptide p-nitroanilide substrates. Assays were performed in Costar ultra-low cluster 96-well microtiter plate (Costar Corning Corp., Cambridge Mass.). Each protease was incubated with various concentrations of the test compound for 15 min. at 37° C. or as otherwise indicated, in specific assay buffer, and the residual activity was then measured by addition of the substrate. p-Nitroaniline produced by the proteolysis was determined by measuring the change in absorbance at 405 nm on a SpectraMAX 340 plate reader (Molecular devices, Sunnyvale, Calif.).
(§2) 1. The inhibition constant, Ki is calculated from individual data points using the equation for a tight-binding inhibitor (See Beith, “Proteinase Inhibitors-Proceedings of 2nd Int. Res. Conference”, Fritz, et al. eds., New York, p.4463-4469 (1974)):
(§3) The Ki values are obtained by correcting Ki ′ values for the effect of substrate concentration according to: [formula]
(§4) 2. Other inhibition data (Ki>>[E]o), the Ki is calculated from using the equations for a competitive inhibitor: [formula] […]
Human Neutrophil Cathepsin G activity was determined by using N-Suc-Ala-Ala-Pro-Phe-pNA in 625 mM Tris-HCl, pH 7.5, 2.5 mM MgCl2, 0.125% Brij 35 (See Groutas et al., Arch. Biochem. Biophys. 294, 144-146 (1992)). […]

Human lung tryptase = molecular target: T2, Human lung tryptase; test: Human lung tryptase inhibition, chromogenic GPR-pNA substrate
T2 construct: Human lung tryptase purchased from Cortex Biochem (San Leandro, Calif.) was purified further on a Superdex 200 gel-filtration column
Method: as §1, §2
vi/vo=[((Ki′+[I]+[E]o)^2−4[I]o[E]o)^½(Ki′+[I]o−[E]o)]/2[E]o
where Ki′ is apparent inhibition constant; vi and vo are the inhibited and uninhibited rates, respectively; [I]o and [E]o are the total concentrations of inhibitor and enzyme, respectively.
[note: [E]o is determined by active site titration of enzyme]
as §3
(§5) 2. Other inhibition data (Ki>>[E]o), the Ki is calculated from using the equations for a competitive inhibitor: [formula]
IC50 is determined by fitting the individual inhibition data point to Sigmoid or four-parameter curve-fit equations.
Human lung tryptase purchased from Cortex Biochem (San Leandro, Calif.) was purified further on a Superdex 200 gel-filtration column. The active-site concentration of the enzyme was determined by spectrophotometric titration with 4-nitrophenyl 4′-guanidinobenzoate according to Schwartz, et al., J. Immunol., 114, 2304-2311 (1990). Tryptase activity was measured according to the procedures of Schwartz, et al., J. Biol. Chem., 261, 7372-7379 (1986) (See also, Schwartz, L. B., Methods In Enzymology, 244, 88 (1994)) with minor modifications, using Tosyl-Gly-Pro-Arg-p-nitroanilide (“GPR-pNA”, Sigma Chemical Co., St. Louis, Mo., T-1637) as a chromogenic substrate. The reaction was performed in 50 mM Tris-HCl, pH 8.0, containing 150 mM NaCl and 0.02% Triton X-100 at 37° C. in Costar ultra-low cluster 96-well microtiter plates (Costar Corning Corp., Cambridge, Mass.). The amount of pNA produced by tryptase was determined by measuring the change in absorbance at 405 nm on a SpectraMAX 340 plate reader (Molecular devices, Sunnyvale, Calif.). The Km for the substrate was determined by Lineweaver-Burk analysis from initial velocities of substrate hydrolysis. The inhibition assay was carried out in a total volume of 200 μL. Tryptase (30 μL-final concentration 1 nM) was incubated with various concentrations of sample compound (50 μL) to be tested in the above assay buffer for 5 min. The reaction was started by the addition of substrate GPR-pNA (40 μL-final concentration 320 μM), and the residual activity was measured after 15 min. of incubation. The inhibition constant, Ki, was determined by fitting the inhibition data to a two-site competitive binding equation using data analysis program GraphPad PRISM (GraphPad Software, Inc., San Diego, Calif.).
(§6) The inhibition constant (Ki) of the test compounds against each proteolytic enzyme was determined according to Zitnik et al., Biochem. Biophys. Res. Commun. 232, 687-697 (1997)).

Human plasma plasmin = molecular target: T3, Human plasma plasmin (Homo sapiens, UniProt P00747); test: Human plasma plasmin inhibition, Tosyl-Gly-Pro-Lys-pNA substrate; conditions: 100 mM Tris-HCl, pH 7.4, 100 mM NaCl, 0.05% Triton X-100
T3 construct: from tissue; host or cells: human plasma
Method: as §1
(§7) 1. The inhibition constant, Ki is calculated from individual data points using the equation for a tight-binding inhibitor (See Beith, “Proteinase Inhibitors-Proceedings of 2nd Int. Res. Conference”, Fritz, et al. eds., New York, p.4463-4469 (1974)): […]
as §5
Human plasma plasmin activity was determined by using Tosyl-Gly-Pro-Lys-pNA in 100 mM Tris-HCl, pH 7.4, 100 mM NaCl, 0.05% Triton X-100 (See Lottenberg, et al., Meth. Enzymol. 80, 341-361 (1981)).
The inhibition constant (Ki) of the test compounds against each proteolytic enzyme was determined according to Zitnik et al., Biochem. Biophys. […]

Human plasma kallikrein = molecular target: T4, Human plasma kallikrein (Homo sapiens, UniProt P03952); test: Human plasma kallikrein inhibition, H-D-Prolyl-Phe-Arg-pNA substrate; conditions: 50 mM Tris-HCl, pH 7.8, 200 mM NaCl, 0.05% BSA
T4 construct: from tissue; host or cells: human plasma
Method: as §1, §7, §4
Human plasma and r-tissue kallikrein activity were determined in 50 mM Tris-HCl1, pH 7.8, 200 mM NaCl, 0.05% BSA by using H-D-Prolyl-Phe-Arg-pNA and DL-Val-Leu-Arg-pNA, respectively (See Lottenberg, et al., Meth. Enzymol. 80, 341-361 (1981)). […]

[2] = molecular target: T5, Bovine pancreatic Trypsin (TPCK-treated) (Bos taurus, UniProt P00760); test: Bovine pancreatic trypsin inhibition, N-α-Benzoyl-L-Arg-pNA substrate; conditions: the 5th table, unit inferred
T5 construct: from tissue; host or cells: bovine pancreas
T5 sequence (P00760 24-246): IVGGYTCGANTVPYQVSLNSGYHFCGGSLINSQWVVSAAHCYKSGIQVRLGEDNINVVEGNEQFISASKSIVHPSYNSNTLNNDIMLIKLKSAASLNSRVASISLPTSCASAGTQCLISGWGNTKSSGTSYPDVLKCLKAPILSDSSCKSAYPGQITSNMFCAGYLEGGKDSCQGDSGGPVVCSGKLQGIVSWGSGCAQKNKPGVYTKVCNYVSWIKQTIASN
Method: as §1, §2, §3, §5
C. Bovine Pancreatic Trypsin
Bovine pancreatic Trypsin (TPCK-treated) activity was determined by using N-α-Benzoyl-L-Arg-pNA in 50 mM Tris-HCl, pH 8.2, 20 mM CaCl2 (See Somorin, et al., J. Biochem. 85, 157-162 (1979)).
as §6

T3 sequence (P00747 581-810 limits assumed): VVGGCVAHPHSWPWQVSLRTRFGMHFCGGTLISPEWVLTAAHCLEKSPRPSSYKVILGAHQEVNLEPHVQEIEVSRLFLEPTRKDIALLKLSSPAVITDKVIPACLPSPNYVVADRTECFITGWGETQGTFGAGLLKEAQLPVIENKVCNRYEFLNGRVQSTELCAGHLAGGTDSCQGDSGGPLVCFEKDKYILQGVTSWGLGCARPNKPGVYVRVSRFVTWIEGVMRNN
T3 sequence (P00747 97-580 partner limits assumed): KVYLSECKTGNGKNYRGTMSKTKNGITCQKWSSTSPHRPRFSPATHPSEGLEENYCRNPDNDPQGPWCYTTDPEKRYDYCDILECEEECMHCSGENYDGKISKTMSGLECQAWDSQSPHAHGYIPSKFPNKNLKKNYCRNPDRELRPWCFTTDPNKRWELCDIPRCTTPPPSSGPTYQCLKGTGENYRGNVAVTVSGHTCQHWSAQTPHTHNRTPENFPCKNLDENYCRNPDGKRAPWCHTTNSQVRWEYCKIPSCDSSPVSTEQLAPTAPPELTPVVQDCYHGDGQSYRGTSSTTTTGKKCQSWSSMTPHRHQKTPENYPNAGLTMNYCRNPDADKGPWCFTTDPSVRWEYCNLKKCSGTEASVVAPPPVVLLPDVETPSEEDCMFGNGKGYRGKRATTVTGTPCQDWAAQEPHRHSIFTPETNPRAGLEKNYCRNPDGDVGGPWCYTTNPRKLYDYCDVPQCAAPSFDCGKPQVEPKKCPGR
T4 sequence (P03952 391-638 limits assumed): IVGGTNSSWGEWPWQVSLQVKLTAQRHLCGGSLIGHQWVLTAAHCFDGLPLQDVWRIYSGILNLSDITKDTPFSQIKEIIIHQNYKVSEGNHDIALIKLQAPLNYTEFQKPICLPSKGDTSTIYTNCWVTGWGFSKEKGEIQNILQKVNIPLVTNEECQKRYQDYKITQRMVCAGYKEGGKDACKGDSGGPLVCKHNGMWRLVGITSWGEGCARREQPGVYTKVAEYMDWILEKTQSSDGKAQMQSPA
T4 sequence (P03952 20-390 partner limits assumed): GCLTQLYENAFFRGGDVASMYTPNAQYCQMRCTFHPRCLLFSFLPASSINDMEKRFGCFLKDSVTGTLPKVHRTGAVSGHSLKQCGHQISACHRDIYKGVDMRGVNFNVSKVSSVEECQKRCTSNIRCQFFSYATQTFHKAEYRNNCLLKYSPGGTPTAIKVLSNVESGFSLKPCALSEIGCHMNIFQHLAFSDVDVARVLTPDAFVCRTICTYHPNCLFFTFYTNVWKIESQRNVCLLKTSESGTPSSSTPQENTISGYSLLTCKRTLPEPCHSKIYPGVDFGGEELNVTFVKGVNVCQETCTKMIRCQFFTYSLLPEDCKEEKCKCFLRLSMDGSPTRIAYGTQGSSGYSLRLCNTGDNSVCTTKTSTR

Cc1cc2cc(CNC(=O)Cc3cc4cc(C(=N)N)ccc4s3)ccc2[nH]1 [drawing 17 Benzthiophene 5-carboxamidine n=1]
Ki [1]: > 100 µM | Ki (Human lung tryptase; the 5th table, unit inferred): 0.041 µM | Ki (Human lung tryptase; tryptase 1 nM, GPR-pNA 320 μM, 50 mM Tris-HCl pH 8.0, 37° C.): 0.041 µM | Ki (Human plasma plasmin): 2.7 µM | Ki (Human plasma kallikrein): 1.6 µM | Ki [2]: 2.4 µM
